For three compounds, refractive index, mass density and Normal boiling temperature results are on record in the NIST ThermoML archive (doi:10.1016/j.fluid.2004.11.025).

Data set [1] is described as follows: refractive index (Na D-line) (dimensionless). As to conditions: 298.15 K; 101.33 kPa; Liquid; Standard Abbe refractometry.
For data set [2] the following is noted: Liquid; for mass density: 293.15 K, 101.33 kPa; for Normal boiling temperature: Fischer boiling point apparatus.

Numbers after ± are expanded uncertainties.

One may read the refractive index as the speed of light in vacuum divided by its phase velocity in the sample. For orientation: mass density means the mass of a sample divided by its volume. As for `CC(=O)O` [acetic acid], the refractive index in data set [1] is on record as 1.3713 ± 0.0007. Besides, in data set [2], the mass density was determined as 1049.42 ± 0.29 kg/m3 and the Normal boiling temperature worked out at 118.1 ± 0.2 °C.

As for `COC(=O)CCCCC(=O)OC` [dimethyl 1,6-hexanedioate], in data set [1], the refractive index was determined as 1.4215 ± 0.0012. In data set [2], the mass density is listed as 1061.9 ± 0.61 kg/m3 and the Normal boiling temperature was 225.1 ± 0.2 °C.

With `O` [water], the refractive index in data set [1] worked out at 1.3324 ± 0.0007.
